The data set can be described thus: Urinary excretion of phenolic metabolites after intake of the GCPE nutraceutical. The note with it: for Cumulative urinary excretion, Total 0–24 h: urine, mean ± SEM, n = 9.

Consider `O=C(O)CCc1ccc(O)c(OS(=O)(=O)O)c1` [DHCA-3′-sulfate, 3-(4′-Hydroxyphenyl)propanoic acid-3′-sulfate], for which the “Cumulative urinary excretion, Total 0–24 h” value (shortened to “Cumulative urinary excretion”) runs as follows: (week 0) 9 ± 2 µmol; (week 8) 9 ± 3 µmol. In addition, the Amount excreted in urine, 0- 3 h by setting is: (week 0, interval 0–3 h) 0.32 ± 0.07 µmol; (week 8, interval 0–3 h) 0.7 ± 0.2 µmol. Further, the Amount excreted in urine, 3-6 h (week 0, interval 3–6 h) amounted to 0.26 ± 0.07 µmol and the Amount excreted in urine, 3-6 h (week 8, interval 3–6 h) came to 0.6 ± 0.2 µmol. Further, the Amount excreted in urine, 6-9 h runs as follows: (week 0, interval 6–9 h) 2.5 ± 0.9 µmol; (week 8, interval 6–9 h) 2.5 ± 0.6 µmol. The Amount excreted in urine, 9-11 h was 2 ± 0.7 µmol (week 0, interval 9–11 h) and 3 ± 1 µmol (week 8, interval 9–11 h). The Amount excreted in urine, 11-24 h came to 4 ± 1 µmol (week 0, interval 11–24 h) and 2 ± 1 µmol (week 8, interval 11–24 h).
As for `O=C(O)CCc1ccc(O[C@@H]2O[C@H](C(=O)O)[C@@H](O)[C@H](O)[C@H]2O)cc1` [DHCoA-4′-glucuronide, 3-(Phenyl)propanoic acid-4′-glucuronide], the “Cumulative urinary excretion” value (week 0) came to 2.1 ± 0.3 µmol and the “Cumulative urinary excretion” value (week 8) was 1.9 ± 0.3 µmol. In addition, the Amount excreted in urine, 0- 3 h was 0.17 ± 0.06 µmol (week 0, interval 0–3 h) and 0.23 ± 0.09 µmol (week 8, interval 0–3 h). The Amount excreted in urine, 3-6 h is, setting by setting: (week 0, interval 3–6 h) 0.1 ± 0.03 µmol; (week 8, interval 3–6 h) 0.16 ± 0.05 µmol. Moreover, the Amount excreted in urine, 6-9 h (week 0, interval 6–9 h) is 0.26 ± 0.09 µmol and the Amount excreted in urine, 6-9 h (week 8, interval 6–9 h) is 0.56 ± 0.2 µmol. Moreover, the Amount excreted in urine, 9-11 h runs as follows: (week 0, interval 9–11 h) 0.28 ± 0.07 µmol; (week 8, interval 9–11 h) 0.4 ± 0.1 µmol. Also, the Amount excreted in urine, 11-24 h reads like this: (week 0, interval 11–24 h) 1.3 ± 0.2 µmol; (week 8, interval 11–24 h) 1 ± 0.1 µmol.
Consider `O=C(O)CCc1ccc(OS(=O)(=O)O)cc1` [DHCoA-4′-sulfate, 3-(Phenyl)propanoic acid-4′-sulfate], for which the “Cumulative urinary excretion” value is given as 21 ± 6 µmol (week 0) and 21 ± 4 µmol (week 8). Besides, the Amount excreted in urine, 0- 3 h by setting is: (week 0, interval 0–3 h) 0.9 ± 0.4 µmol; (week 8, interval 0–3 h) 2 ± 0.8 µmol. Besides, the Amount excreted in urine, 3-6 h runs as follows: (week 0, interval 3–6 h) 0.7 ± 0.1 µmol; (week 8, interval 3–6 h) 1.5 ± 0.5 µmol. For the same compound, the Amount excreted in urine, 6-9 h worked out at 3 ± 1 µmol (week 0, interval 6–9 h) and 5 ± 2 µmol (week 8, interval 6–9 h). Further, the Amount excreted in urine, 9-11 h is, setting by setting: (week 0, interval 9–11 h) 3 ± 1 µmol; (week 8, interval 9–11 h) 5 ± 2 µmol. In addition, the Amount excreted in urine, 11-24 h runs as follows: (week 0, interval 11–24 h) 12 ± 4 µmol; (week 8, interval 11–24 h) 7 ± 3 µmol.
With `COc1ccc(/C=C/C(=O)NCC(=O)O)cc1O` [IsoFeruloylglicine], the “Cumulative urinary excretion” value (week 0) was 0.44 ± 0.04 µmol and the “Cumulative urinary excretion” value (week 8) amounted to 0.6 ± 0.1 µmol. Also, the Amount excreted in urine, 0- 3 h (week 0, interval 0–3 h) came to 0.04 ± 0.01 µmol and the Amount excreted in urine, 0- 3 h (week 8, interval 0–3 h) worked out at 0.13 ± 0.05 µmol. For the same compound, the Amount excreted in urine, 3-6 h reads like this: (week 0, interval 3–6 h) 0.035 ± 0.009 µmol; (week 8, interval 3–6 h) 0.1 ± 0.02 µmol. Also, the Amount excreted in urine, 6-9 h (week 0, interval 6–9 h) is 0.08 ± 0.02 µmol and the Amount excreted in urine, 6-9 h (week 8, interval 6–9 h) stood at 0.12 ± 0.04 µmol. Further, the Amount excreted in urine, 9-11 h by setting is: (week 0, interval 9–11 h) 0.11 ± 0.01 µmol; (week 8, interval 9–11 h) 0.06 ± 0.02 µmol. In addition, the Amount excreted in urine, 11-24 h reads like this: (week 0, interval 11–24 h) 0.16 ± 0.03 µmol; (week 8, interval 11–24 h) 0.17 ± 0.05 µmol.
As to `COc1ccc(C=CC(=O)O)cc1O[C@@H]1O[C@H](C(=O)O)[C@@H](O)[C@H](O)[C@H]1O` [iFA-3′-glucuronide, 4′-Methoxycinnamic acid-3′-glucuronide], the “Cumulative urinary excretion” value runs as follows: (week 0) 4.4 ± 0.5 µmol; (week 8) 6 ± 1 µmol. Further, the Amount excreted in urine, 0- 3 h (week 0, interval 0–3 h) was found to be 0.9 ± 0.2 µmol and the Amount excreted in urine, 0- 3 h (week 8, interval 0–3 h) is 1.4 ± 0.3 µmol. Moreover, the Amount excreted in urine, 3-6 h by setting is: (week 0, interval 3–6 h) 0.8 ± 0.2 µmol; (week 8, interval 3–6 h) 0.9 ± 0.2 µmol. Moreover, the Amount excreted in urine, 6-9 h runs as follows: (week 0, interval 6–9 h) 1.1 ± 0.3 µmol; (week 8, interval 6–9 h) 1.7 ± 0.3 µmol. For the same compound, the Amount excreted in urine, 9-11 h runs as follows: (week 0, interval 9–11 h) 0.49 ± 0.09 µmol; (week 8, interval 9–11 h) 1 ± 0.4 µmol. Also, the Amount excreted in urine, 11-24 h is 1.1 ± 0.2 µmol (week 0, interval 11–24 h) and 1.1 ± 0.3 µmol (week 8, interval 11–24 h).

The values above are taken from paper PMC9230201, “Sustained Consumption of a Decaffeinated Green Coffee Nutraceutical Has Limited Effects on Phenolic Metabolism and Bioavailability in Overweight/Obese Subjects” (Nutrients, 2022).
